Here are results for 3 compounds from article PMC3663898 (Antiviral research, 2013).

For one data set, the system named is TCRV. The data set is described as follows: microbe, parasite or virus in culture. To be noted: Mammarenavirus tacaribeense, Huh7.5, 48 h; for EC50: read-out: TARV EC50; for EC90: read-out: TARV EC90. It counts as cell-based, Tacaribe virus (11573 strain).
Another data set relates to DENV. Description: microbe, parasite or virus in culture. It counts as cell-based, DENV (serotype 2, New Guinea C). The settings on record: Dengue virus, BHK, 48 h; for EC50: read-out: DENV EC50; for EC90: read-out: DENV EC90.
For data set [1] the following is noted: male, Sprague-Dawley, rat, in vivo.
The conditions of data set [2]: rat, in vivo; for rats with diarrhea: Sprague-Dawley, po, 200 mg/kg.
A further data set in a line: in vivo. To be noted: male, Sprague-Dawley, rat; for C0 / clearance / Vd / half-life: iv.
Data set [3] can be described thus: in vitro. To be noted: bovine.
Data set [4] can be described thus: in vitro. The settings on record: human.
A short description of data set [5]: in vitro. The settings on record: hamster.
Data set [6] relates to CYP1A2, CYP2C9, CYP2C19, CYP2D6 and CYP3A4. Description: in vitro. The settings on record: human.
A short description of data set [7]: in vitro. To be noted: human, Caco-2.

Converted amounts (≈) assume the structure as drawn. Like-named read-outs stand apart in the source and are kept apart here. Bounds are passed on as bounds.

Take `OC[C@@H]1[C@@H](O)[C@H](O)[C@@H](O)CN1CCCCCCOc1cc(F)ccc1F` [IHVR11029, (2R,3R,4R,5S)-1-(6-(2,5-difluorophenoxy)hexyl)-2-(hydroxymethyl)piperidine-3,4,5-triol]: in the data set on TCRV, the half-maximal effective concentration (EC50) (usually the concentration needed to bring the measured effect to its halfway point) is 3.3 ± 2.7 µM and the EC90 (usually the point of the concentration-response curve where the effect stands at 90%) was 69 ± 37.7 µM. Moreover, in the data set on DENV, the EC50 is 0.75 ± 0.06 µM and the EC90 was 6.3 ± 3.5 µM. In addition, in [1], the “F PO” value is listed as 92/ND/ND %. In addition, the “AUC IV” value in data set [1] (5 mg/kg) was 1990/9180/ND/ND μg*h/mL. The “AUC PO” value in data set [1] (25 mg/kg) is 1990/9180/ND/ND μg*h/mL. In addition, in data set [2], the rats with diarrhea was determined as 50% and the “adverse event at lower doses” value was “sign of GI stress, such as anogenital staining or soft stool”. For the same compound, in “in vivo” (5 mg/kg), the C0 was 1620 ng/mL and the clearance (usually a measure of how efficiently the substance is removed, as volume per time) was 42.3 mL/min/kg. Further, the Tmax (commonly the time at which the peak concentration occurs) in “in vivo” (po, 25 mg/kg) turned out to be 4.17 h. The CC50 in the data set “in vitro [3]” was greater than 500 µM. This compound also yielded a CC50 in the data set “in vitro [4]” greater than 500 µM. For the same compound, in “in vitro [5]”, the CC50 is greater than 500 µM. In addition, in [6], the IC50 (usually the concentration needed to halve the response being measured) is greater than 10 µM.

Regarding `CC(C)(C)C(=O)N(CCCCCCN1C[C@H](O)[C@@H](O)[C@H](O)[C@H]1CO)C1CCCCC1` [IHVR17028, N-cyclohexyl-N-(6-((2R,3R,4R,5S)-3,4,5-trihydroxy-2-(hydroxymethyl)piperidin-1-yl)hexyl)pivalamide], in the data set with TCRV, the EC50 was 0.26 ± 0.08 µM and the EC90 is 26.7 ± 20.9 µM. In addition, in the data set with DENV, the EC50 was 0.3 ± 0.03 µM and the EC90 came out at 1.7 ± 0.8 µM. In addition, the “AUC IV” value in data set [1] (5 mg/kg) was 1540/903/ND/ND μg*h/mL. Besides, in data set [1] (25 mg/kg), the “AUC PO” value is on record as 1540/903/ND/ND μg*h/mL. Besides, in data set [2], the rats with diarrhea came out at 100% and the “adverse event at lower doses” value was “sign of GI stress, such as anogenital staining or soft stool”. Also, in “in vivo” (5 mg/kg), the C0 was 1660 ng/mL; the Vd (usually a proportionality between amount in the body and measured concentration, not a real space) turned out to be 3 L/kg; the clearance is 55.7 mL/min/kg; the half-life (commonly the time in which the quantity being followed falls by half) is 0.88 h. Moreover, in the data set “in vivo” (po, 25 mg/kg), the highest level (Cmax) was 180 ng/mL and the Tmax was 1.56 h. Also, the CC50 in “in vitro [3]” is greater than 500 µM. The compound further yielded a CC50 in “in vitro [4]” greater than 500 µM. The compound also gave a CC50 in the data set “in vitro [5]” greater than 500 µM. In “physchem” (pH 4, aqueous buffer), the concentration in solution (solubility) was 299 µM (≈ 128 µg/mL). The solubility (usually the dissolved amount per volume that the medium holds) in “physchem” (pH 7.4, aqueous buffer) was 311 µM (≈ 133 µg/mL). In data set [6], this compound yielded an IC50 greater than 10 µM. Moreover, the efflux ratio (usually the permeability from basolateral to apical divided by that in the opposite direction, in the common usage) in “in vitro [7]” is 31.7.

Consider `CC(C)(C)NC(=O)N(CCCCCCN1C[C@H](O)[C@@H](O)[C@H](O)[C@H]1CO)C1CCCCC1` [IHVR19029, 3-(tert-butyl)-1-cyclohexyl-1-(6-((2R,3R,4R,5S)-3,4,5-trihydroxy-2-(hydroxymethyl)piperidin-1-yl)hexyl)urea], for which the EC50 was 0.74 ± 0.3 µM with TCRV and 1.25 ± 1.1 µM in the data set with DENV. Also, the 90% effect concentration (EC90) in the data set on TCRV was 52.5 ± 38.9 µM; with DENV, 22.5 ± 10.6 µM. Further, the “AUC IM” value in [1] is recorded as 1383/945/1839/983 μg*h/mL. In data set [1], the “F PO” value is given as 4.6/71/133%. The “AUC IP” value in data set [1] (ip, 5 mg/kg) is listed as 1383/945/1839/983 μg*h/mL. The “AUC IV” value in data set [1] (5 mg/kg) is 1383/945/1839/983 μg*h/mL. For the same compound, the “AUC PO” value in data set [1] (75 mg/kg) was 1383/945/1839/983 μg*h/mL. Further, where the note is “Balb/c mice, single dose IP or IM up to 200mg/kg, 9-day observation”, the “mortality or clinical signs” value is “No mortality or clinical signs were observed”. The “weight loss and GI alterations” value (mouse, in vivo) was “No significant weight loss and GI alterations”. For the same compound, the Tmax in “in vivo” is 0.167 h; in the data set “in vivo” (im, 5 mg/kg), 0.1 h; in the data set “in vivo” (ip, 5 mg/kg) it was 0.17 h; in the data set “in vivo” (po, 75 mg/kg) it was 2.1 h. Besides, the Cmax (in general, the peak of the concentration-time curve) is 1230 ng/mL in “in vivo” (im, 5 mg/kg); 1330 ng/mL in the data set “in vivo” (ip, 5 mg/kg); 260 ng/mL in “in vivo” (po, 75 mg/kg). This compound also had a C0 in the data set “in vivo” (5 mg/kg) of 1790 ng/mL. This compound also showed a Vd in the data set “in vivo” (5 mg/kg) of 3 L/kg. Besides, the clearance in “in vivo” (5 mg/kg) is 58.2 mL/min/kg. This compound had a half-life in the data set “in vivo” (5 mg/kg) of 1.2 h. Further, the CC50 in the data set “in vitro [3]”, in the data set “in vitro [4]” and in the data set “in vitro [5]” was greater than 500 µM in each case. Besides, the solubility in “physchem” (pH 4, aqueous buffer) turned out to be 309 µM (≈ 137 µg/mL); in “physchem” (pH 7.4, aqueous buffer), 303 µM (≈ 134 µg/mL). For the same compound, the IC50 in data set [6] is greater than 10 µM. In addition, in the data set “in vitro [7]”, the efflux ratio was found to be 34.2.
